Laboratory results from ChEMBL document CHEMBL1201862, “PubChem BioAssay data set” (2004).
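48-hour exposure; five concentrations; linearly interpolated endpoints. At the GI50, growth is halved.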 Active and inactive are the calls of the source. Rule as the data show it: active = GI50 up to about 1.1 µM and inactive = higher.

How the values were obtained:
Assay in all cases: inhibition of tumour cell growth, NCI panel, 48 h
MDA-MB-435 = test system: MDA-MB-435
SK-OV-3 = test system: SK-OV-3
T47D = test system: T47D
OVCAR-8 = test system: OVCAR-8
BT-549 = test system: BT-549
UO-31 = test system: UO-31
CCRF-CEM = test system: CCRF-CEM
KM12 = test system: KM12
HCT-15 = test system: HCT-15
Malme-3M = test system: Malme-3M
PC-3 = test system: PC-3
DU-145 = test system: DU-145
HT-29 = test system: HT-29
MCF7 = test system: MCF7
UACC-257 = test system: UACC-257
NCI/ADR-RES = test system: NCI/ADR-RES
SK-MEL-2 = test system: SK-MEL-2
Hs-578T = test system: Hs-578T
786-0 = test system: 786-0
TK-10 = test system: TK-10
UACC-62 = test system: UACC-62
HL-60 = test system: HL-60
HOP-62 = test system: HOP-62
U-251 = test system: U-251
RPMI-8226 = test system: RPMI-8226
IGROV-1 = test system: IGROV-1
OVCAR-4 = test system: OVCAR-4
HOP-92 = test system: HOP-92
MDA-N = test system: MDA-N
SF-295 = test system: SF-295
HCT-116 = test system: HCT-116
MOLT-4 = test system: MOLT-4
SF-539 = test system: SF-539
NCI-H226 = test system: NCI-H226
K562 = test system: K562
OVCAR-5 = test system: OVCAR-5
RXF 393 = test system: RXF 393
COLO 205 = test system: COLO 205
MDA-MB-231 = test system: MDA-MB-231
SW-620 = test system: SW-620
SK-MEL-28 = test system: SK-MEL-28
NCI-H23 = test system: NCI-H23
OVCAR-3 = test system: OVCAR-3
EKVX = test system: EKVX
SN12C = test system: SN12C
ACHN = test system: ACHN
SF-268 = test system: SF-268
HCC 2998 = test system: HCC 2998
SR = test system: SR
A549 = test system: A549
NCI-H522 = test system: NCI-H522
SNB-19 = test system: SNB-19
LOX IMVI = test system: LOX IMVI
SNB-75 = test system: SNB-75
M14 = test system: M14
SK-MEL-5 = test system: SK-MEL-5
NCI-H460 = test system: NCI-H460
CAKI-1 = test system: CAKI-1
A498 = test system: A498

c1ccc2c(c1)ncn2C1CCCCO1 (stereo not given)
GI50 (MDA-MB-435): > 100 µM (inactive)
GI50 (SK-OV-3): > 100 µM (inactive)
GI50 (T47D): > 100 µM (inactive)
GI50 (OVCAR-8): > 100 µM (inactive)
GI50 (BT-549): > 100 µM (inactive)
GI50 (UO-31): > 100 µM (inactive)
GI50 (CCRF-CEM): > 100 µM (inactive)
GI50 (KM12): > 100 µM (inactive)
GI50 (HCT-15): > 100 µM
GI50 (Malme-3M): > 100 µM (inactive)
GI50 (PC-3): > 100 µM (inactive)
GI50 (DU-145): > 100 µM (inactive)
GI50 (HT-29): > 100 µM (inactive)
GI50 (MCF7): > 100 µM (inactive)
GI50 (UACC-257): > 100 µM (inactive)
GI50 (NCI/ADR-RES): > 100 µM (inactive)
GI50 (SK-MEL-2): > 100 µM (inactive)
GI50 (Hs-578T): > 100 µM (inactive)
GI50 (786-0): > 100 µM (inactive)
GI50 (TK-10): > 100 µM (inactive)
GI50 (UACC-62): > 100 µM (inactive)
GI50 (HL-60): > 100 µM (inactive)
GI50 (HOP-62): > 100 µM (inactive)
GI50 (U-251): > 100 µM (inactive)
GI50 (RPMI-8226): > 100 µM (inactive)
GI50 (IGROV-1): > 100 µM (inactive)
GI50 (OVCAR-4): > 100 µM (inactive)
GI50 (HOP-92): > 100 µM (inactive)
GI50 (MDA-N): > 100 µM (inactive)
GI50 (SF-295): > 100 µM (inactive)
GI50 (HCT-116): > 100 µM (inactive)
GI50 (MOLT-4): > 100 µM (inactive)
GI50 (SF-539): > 100 µM (inactive)
GI50 (NCI-H226): > 100 µM (inactive)
GI50 (K562): > 100 µM (inactive)
GI50 (OVCAR-5): > 100 µM (inactive)
GI50 (RXF 393): > 100 µM (inactive)
GI50 (COLO 205): > 100 µM (inactive)
GI50 (MDA-MB-231): > 100 µM (inactive)
GI50 (SW-620): > 100 µM (inactive)
GI50 (SK-MEL-28): > 100 µM (inactive)
GI50 (NCI-H23): > 100 µM (inactive)
GI50 (OVCAR-3): > 100 µM (inactive)
GI50 (EKVX): > 100 µM (inactive)
GI50 (SN12C): > 100 µM (inactive)
GI50 (ACHN): > 100 µM (inactive)
GI50 (SF-268): > 100 µM (inactive)
GI50 (HCC 2998): > 100 µM (inactive)
GI50 (SR): > 100 µM (inactive)
GI50 (A549): > 100 µM (inactive)
GI50 (NCI-H522): > 100 µM (inactive)
GI50 (SNB-19): > 100 µM (inactive)
GI50 (LOX IMVI): > 100 µM (inactive)
GI50 (SNB-75): > 100 µM (inactive)
GI50 (M14): > 100 µM (inactive)
GI50 (SK-MEL-5): > 100 µM (inactive)

C=C1C(=O)O[C@@H]2[C@@H]3O[C@@H](C[C@@H]13)[C@](C)(O)CC/C=C(\C)CCC[C@@H]2C
GI50 (MDA-MB-435): 7.87 µM (inactive)
GI50 (NCI-H460): 14.1 µM (inactive)
GI50 (SK-OV-3): 19.3 µM (inactive)
GI50 (T47D): 18.7 µM (inactive)
GI50 (OVCAR-8): 6.7 µM (inactive)
GI50 (BT-549): 12.6 µM (inactive)
GI50 (UO-31): 10.8 µM (inactive)
GI50 (CCRF-CEM): 2.86 µM (inactive)
GI50 (KM12): 16.3 µM (inactive)
GI50 (HCT-15): 11.6 µM
GI50 (Malme-3M): 13.3 µM (inactive)
GI50 (PC-3): 10.4 µM (inactive)
GI50 (DU-145): 14.2 µM (inactive)
GI50 (HT-29): 17.3 µM (inactive)
GI50 (MCF7): 7.48 µM (inactive)
GI50 (UACC-257): 12.3 µM (inactive)
GI50 (NCI/ADR-RES): 10.6 µM (inactive)
GI50 (SK-MEL-2): 13.3 µM (inactive)
GI50 (Hs-578T): 17.4 µM (inactive)
GI50 (786-0): 5.42 µM (inactive)
GI50 (TK-10): 14.4 µM (inactive)
GI50 (UACC-62): 12.4 µM (inactive)
GI50 (HL-60): 2.8 µM (inactive)
GI50 (HOP-62): 15.9 µM (inactive)
GI50 (U-251): 10.5 µM (inactive)
GI50 (CAKI-1): 13 µM (inactive)
GI50 (RPMI-8226): 2.82 µM (inactive)
GI50 (IGROV-1): 10.2 µM (inactive)
GI50 (OVCAR-4): 14.5 µM (inactive)
GI50 (HOP-92): 13.2 µM (inactive)
GI50 (MDA-N): 4.75 µM (inactive)
GI50 (SF-295): 26.4 µM (inactive)
GI50 (HCT-116): 8.13 µM (inactive)
GI50 (MOLT-4): 3.35 µM (inactive)
GI50 (SF-539): 10.5 µM (inactive)
GI50 (NCI-H226): 19.7 µM (inactive)
GI50 (K562): 4.66 µM (inactive)
GI50 (OVCAR-5): 22 µM (inactive)
GI50 (RXF 393): 13.6 µM (inactive)
GI50 (COLO 205): 14.7 µM (inactive)
GI50 (MDA-MB-231): 16.6 µM (inactive)
GI50 (SW-620): 5.46 µM (inactive)
GI50 (SK-MEL-28): 15.8 µM (inactive)
GI50 (NCI-H23): 13.3 µM (inactive)
GI50 (OVCAR-3): 12.5 µM (inactive)
GI50 (EKVX): 15 µM (inactive)
GI50 (SN12C): 12 µM (inactive)
GI50 (ACHN): 8.91 µM (inactive)
GI50 (SF-268): 16.9 µM (inactive)
GI50 (HCC 2998): 17.7 µM (inactive)
GI50 (A549): 17.4 µM (inactive)
GI50 (NCI-H522): 5.87 µM (inactive)
GI50 (SNB-19): 15.1 µM (inactive)
GI50 (LOX IMVI): 4.75 µM (inactive)
GI50 (SNB-75): 11.8 µM (inactive)
GI50 (M14): 12.2 µM (inactive)
GI50 (A498): 13.2 µM (inactive)
GI50 (SK-MEL-5): 16.4 µM (inactive)

O=CNc1ccc(S(=O)(=O)c2ccc(NC=O)cc2)cc1
GI50 (MDA-MB-435): > 100 µM (inactive)
GI50 (NCI-H460): > 100 µM (inactive)
GI50 (SK-OV-3): > 100 µM (inactive)
GI50 (T47D): > 100 µM (inactive)
GI50 (OVCAR-8): > 100 µM (inactive)
GI50 (BT-549): > 100 µM (inactive)
GI50 (UO-31): > 100 µM (inactive)
GI50 (CCRF-CEM): > 100 µM (inactive)
GI50 (KM12): > 100 µM (inactive)
GI50 (HCT-15): > 100 µM
GI50 (Malme-3M): > 100 µM (inactive)
GI50 (PC-3): > 100 µM (inactive)
GI50 (DU-145): > 100 µM (inactive)
GI50 (HT-29): > 100 µM (inactive)
GI50 (MCF7): > 100 µM (inactive)
GI50 (UACC-257): > 100 µM (inactive)
GI50 (NCI/ADR-RES): > 100 µM (inactive)
GI50 (SK-MEL-2): > 100 µM (inactive)
GI50 (Hs-578T): > 100 µM (inactive)
GI50 (786-0): > 100 µM (inactive)
GI50 (TK-10): > 100 µM (inactive)
GI50 (UACC-62): > 100 µM (inactive)
GI50 (HL-60): > 100 µM (inactive)
GI50 (HOP-62): > 100 µM (inactive)
GI50 (U-251): > 100 µM (inactive)
GI50 (CAKI-1): > 100 µM (inactive)
GI50 (RPMI-8226): > 100 µM (inactive)
GI50 (IGROV-1): > 100 µM (inactive)
GI50 (OVCAR-4): > 100 µM (inactive)
GI50 (HOP-92): > 100 µM (inactive)
GI50 (MDA-N): > 100 µM (inactive)
GI50 (SF-295): > 100 µM (inactive)
GI50 (HCT-116): > 100 µM (inactive)
GI50 (MOLT-4): > 100 µM (inactive)
GI50 (SF-539): > 100 µM (inactive)
GI50 (K562): > 100 µM (inactive)
GI50 (OVCAR-5): > 100 µM (inactive)
GI50 (COLO 205): > 100 µM (inactive)
GI50 (MDA-MB-231): > 100 µM (inactive)
GI50 (SW-620): > 100 µM (inactive)
GI50 (SK-MEL-28): > 100 µM (inactive)
GI50 (NCI-H23): > 100 µM (inactive)
GI50 (OVCAR-3): > 100 µM (inactive)
GI50 (EKVX): > 100 µM (inactive)
GI50 (SN12C): > 100 µM (inactive)
GI50 (ACHN): > 100 µM (inactive)
GI50 (SF-268): > 100 µM (inactive)
GI50 (HCC 2998): > 100 µM (inactive)
GI50 (SR): > 100 µM (inactive)
GI50 (A549): > 100 µM (inactive)
GI50 (NCI-H522): > 100 µM (inactive)
GI50 (SNB-19): > 100 µM (inactive)
GI50 (LOX IMVI): > 100 µM (inactive)
GI50 (SNB-75): 29.7 µM (inactive)
GI50 (M14): > 100 µM (inactive)
GI50 (SK-MEL-5): > 100 µM (inactive)
